Reference: ChEMBL document CHEMBL1833909, “Synthesis and structure-activity relationships of 4,5-fused pyridazinones as histamine H₃ receptor antagonists” (Bioorg Med Chem Lett, 2011)
pEC50, pIC50, pKi: −log10 of the molar value.

What was measured:
[1] = molecular target: Histamine H3 receptor (Rattus norvegicus, UniProt Q9QYN8); experiment: Displacement of [3H]-NAMH from rat histamine H3 receptor expressed in CHO cells; assay type: cell-based
[2] = molecular target: T1, Histamine H3 receptor (Homo sapiens, UniProt Q9Y5N1); experiment: biochemical
[3] = molecular target: Cytochrome P450 3A4 (Homo sapiens, UniProt P08684); experiment: Inhibition of CYP3A4; assay type: ADME
[4] = molecular target: Cytochrome P450 2C19 (Homo sapiens, UniProt P33261); experiment: Inhibition of CYP2C19; assay type: ADME
[5] = molecular target: Cytochrome P450 2D6 (Homo sapiens, UniProt P10635); experiment: Inhibition of CYP2D6; assay type: ADME
[6] = molecular target: T2, Cytochrome P450 1A2 (Homo sapiens, UniProt P05177); experiment: Inhibition of CYP1A2; assay type: ADME
T2 sequence (P05177 whole entry): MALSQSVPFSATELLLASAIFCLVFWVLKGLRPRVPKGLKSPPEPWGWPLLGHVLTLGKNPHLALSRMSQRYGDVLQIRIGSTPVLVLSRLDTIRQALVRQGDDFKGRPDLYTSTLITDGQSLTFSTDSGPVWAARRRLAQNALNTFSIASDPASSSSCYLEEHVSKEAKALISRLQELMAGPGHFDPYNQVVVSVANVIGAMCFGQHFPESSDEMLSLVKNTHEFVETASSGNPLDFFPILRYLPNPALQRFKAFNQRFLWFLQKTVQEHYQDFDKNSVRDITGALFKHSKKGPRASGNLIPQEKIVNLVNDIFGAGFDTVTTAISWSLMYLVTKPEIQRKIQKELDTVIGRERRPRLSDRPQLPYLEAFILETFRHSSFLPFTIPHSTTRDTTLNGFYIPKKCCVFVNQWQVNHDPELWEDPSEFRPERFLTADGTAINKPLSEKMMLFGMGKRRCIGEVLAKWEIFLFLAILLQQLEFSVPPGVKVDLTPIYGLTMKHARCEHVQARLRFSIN

[7] = molecular target: Cytochrome P450 2C9 (Homo sapiens, UniProt P11712); experiment: Inhibition of CYP2C9; assay type: ADME
[8] = Volume of distribution in rat at 1 mg/kg, iv; assay type: ADME, organism-based; parameters: dose 1 mg/kg, route intravenous; settings: in vivo
[9] = AUC in rat at 1 mg/kg, iv; assay type: ADME, organism-based; parameters: dose 1 mg/kg, route intravenous; settings: plasma
[10] = Half life in rat at 1 mg/kg, iv; assay type: ADME, organism-based; parameters: dose 1 mg/kg, route intravenous; settings: in vivo
[11] = Cmax in rat at 5 mg/kg, po; assay type: ADME, organism-based; parameters: dose 5 mg/kg, route oral; settings: in vivo
[12] = Ratio of drug level in brain to plasma in ip dosed rat after 1 hr; assay type: ADME, organism-based; settings: read-out: BPR
[13] = Oral bioavailability in rat at 5 mg/kg; assay type: ADME, organism-based; settings: in vivo
[14] = Clearance in rat at 1 mg/kg, iv; assay type: ADME, organism-based; parameters: dose 1 mg/kg, route intravenous; settings: in vivo
[15] = molecular target: T1, Histamine H3 receptor; experiment: Antagonist activity at recombinant human histamine H3 receptor assessed as inhibition of RAMH-induced [35S]GTPgammaS binding; assay type: functional
[16] = molecular target: T1, Histamine H3 receptor; experiment: Inverse agonist activity at human histamine H3 receptor assessed as decrease of basal activity of [35S]GTPgammaS binding; assay type: functional
[17] = Half life in rat liver microsomes; assay type: ADME, Microsome
[18] = Half life in dog liver microsomes; assay type: ADME, Canis lupus familiaris, Microsome
[19] = AUC in rat at 5 mg/kg, po; assay type: ADME, organism-based; parameters: dose 5 mg/kg, route oral; settings: plasma
[20] = Half life in human liver microsomes; assay type: ADME, Microsome
[21] = molecular target: Histamine H2 receptor (Homo sapiens) (UniProt P25021); experiment: Inhibition of human histamine H2 receptor at 10 uM
[22] = molecular target: Histamine H1 receptor (Homo sapiens) (UniProt P35367); experiment: Inhibition of human histamine H1 receptor at 10 uM
[23] = molecular target: hERG (KCNH2) (Homo sapiens, UniProt Q12809); experiment: Inhibition of human ERG at 10 uM by patch clamp assay
[24] = molecular target: Histamine H4 receptor (Homo sapiens) (UniProt Q9H3N8); experiment: Inhibition of human histamine H4 receptor at 10 uM
[25] = molecular target: Sodium-dependent noradrenaline transporter (Homo sapiens) (UniProt P23975); experiment: Inhibition of norepinephrine transporter at 10 uM
[26] = Inhibition of dihydropyridine site of calcium channel at 10 uM

Chain of Cytochrome P450 3A4 (P08684 whole entry): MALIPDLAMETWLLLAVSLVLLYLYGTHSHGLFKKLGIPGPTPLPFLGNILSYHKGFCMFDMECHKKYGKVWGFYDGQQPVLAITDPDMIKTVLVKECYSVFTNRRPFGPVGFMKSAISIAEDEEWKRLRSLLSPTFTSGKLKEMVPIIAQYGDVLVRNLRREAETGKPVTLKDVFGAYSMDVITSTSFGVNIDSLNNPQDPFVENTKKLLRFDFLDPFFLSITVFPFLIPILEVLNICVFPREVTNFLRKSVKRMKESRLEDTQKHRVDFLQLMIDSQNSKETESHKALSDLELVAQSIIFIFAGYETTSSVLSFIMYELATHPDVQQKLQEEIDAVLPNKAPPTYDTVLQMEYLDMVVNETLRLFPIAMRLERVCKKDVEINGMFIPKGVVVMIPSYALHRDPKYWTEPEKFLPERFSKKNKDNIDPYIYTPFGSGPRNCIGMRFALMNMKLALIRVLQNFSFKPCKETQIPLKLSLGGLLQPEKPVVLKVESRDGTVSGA
Chain of Cytochrome P450 2C9 (P11712 whole entry): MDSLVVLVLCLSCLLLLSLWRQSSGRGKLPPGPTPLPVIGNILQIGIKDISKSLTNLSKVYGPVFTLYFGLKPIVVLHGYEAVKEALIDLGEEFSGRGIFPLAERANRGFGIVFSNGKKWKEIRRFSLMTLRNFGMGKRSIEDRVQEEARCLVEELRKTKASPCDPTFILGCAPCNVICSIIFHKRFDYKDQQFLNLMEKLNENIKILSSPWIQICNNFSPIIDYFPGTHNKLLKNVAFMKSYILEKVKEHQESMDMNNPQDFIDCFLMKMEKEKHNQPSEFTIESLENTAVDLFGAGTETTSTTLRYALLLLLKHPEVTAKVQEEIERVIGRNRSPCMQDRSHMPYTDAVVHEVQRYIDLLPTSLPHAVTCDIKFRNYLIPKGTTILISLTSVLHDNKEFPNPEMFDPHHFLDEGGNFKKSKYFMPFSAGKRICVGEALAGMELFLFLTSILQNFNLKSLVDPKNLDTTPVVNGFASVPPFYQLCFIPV
Chain of Cytochrome P450 2D6 (P10635 whole entry): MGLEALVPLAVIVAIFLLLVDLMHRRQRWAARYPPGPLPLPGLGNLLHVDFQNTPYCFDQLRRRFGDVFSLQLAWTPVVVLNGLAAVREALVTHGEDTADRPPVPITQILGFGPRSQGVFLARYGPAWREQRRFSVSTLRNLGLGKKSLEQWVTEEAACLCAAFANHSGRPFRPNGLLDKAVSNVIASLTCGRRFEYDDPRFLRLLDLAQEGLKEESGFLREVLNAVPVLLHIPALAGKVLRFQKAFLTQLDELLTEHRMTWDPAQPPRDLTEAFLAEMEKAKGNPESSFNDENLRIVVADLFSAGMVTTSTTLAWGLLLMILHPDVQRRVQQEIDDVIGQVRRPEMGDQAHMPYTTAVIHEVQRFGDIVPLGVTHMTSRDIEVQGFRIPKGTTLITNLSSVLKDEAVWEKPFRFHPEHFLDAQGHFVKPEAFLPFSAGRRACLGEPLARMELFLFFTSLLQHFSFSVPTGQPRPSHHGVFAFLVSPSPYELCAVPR
T1 sequence (Q9Y5N1 whole entry): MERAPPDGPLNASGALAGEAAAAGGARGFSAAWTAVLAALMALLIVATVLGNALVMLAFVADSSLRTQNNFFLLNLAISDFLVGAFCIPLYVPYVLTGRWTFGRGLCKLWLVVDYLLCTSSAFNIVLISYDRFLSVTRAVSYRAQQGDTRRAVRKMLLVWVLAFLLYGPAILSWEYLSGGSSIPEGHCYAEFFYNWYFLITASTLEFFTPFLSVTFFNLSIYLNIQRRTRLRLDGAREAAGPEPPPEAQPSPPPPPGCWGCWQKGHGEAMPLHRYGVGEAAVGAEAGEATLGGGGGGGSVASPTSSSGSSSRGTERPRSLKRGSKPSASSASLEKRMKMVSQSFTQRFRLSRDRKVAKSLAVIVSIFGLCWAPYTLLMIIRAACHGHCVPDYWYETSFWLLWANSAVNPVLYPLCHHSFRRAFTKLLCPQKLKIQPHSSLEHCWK
Chain of Cytochrome P450 2C19 (P33261 whole entry): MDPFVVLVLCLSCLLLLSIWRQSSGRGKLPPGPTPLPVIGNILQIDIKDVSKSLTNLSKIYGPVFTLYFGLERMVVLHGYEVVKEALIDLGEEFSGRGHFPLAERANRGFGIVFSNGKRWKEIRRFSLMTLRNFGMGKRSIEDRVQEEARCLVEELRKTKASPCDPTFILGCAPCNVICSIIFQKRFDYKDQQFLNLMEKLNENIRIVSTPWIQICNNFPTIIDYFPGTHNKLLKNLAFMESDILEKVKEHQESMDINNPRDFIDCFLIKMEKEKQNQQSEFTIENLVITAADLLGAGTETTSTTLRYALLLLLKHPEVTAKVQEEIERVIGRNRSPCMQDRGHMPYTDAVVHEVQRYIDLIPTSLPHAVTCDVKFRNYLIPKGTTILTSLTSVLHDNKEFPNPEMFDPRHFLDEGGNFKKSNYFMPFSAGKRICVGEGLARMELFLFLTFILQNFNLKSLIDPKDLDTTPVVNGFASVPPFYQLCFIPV
Chain of Histamine H3 receptor (Rattus norvegicus, UniProt Q9QYN8) (Q9QYN8 whole entry): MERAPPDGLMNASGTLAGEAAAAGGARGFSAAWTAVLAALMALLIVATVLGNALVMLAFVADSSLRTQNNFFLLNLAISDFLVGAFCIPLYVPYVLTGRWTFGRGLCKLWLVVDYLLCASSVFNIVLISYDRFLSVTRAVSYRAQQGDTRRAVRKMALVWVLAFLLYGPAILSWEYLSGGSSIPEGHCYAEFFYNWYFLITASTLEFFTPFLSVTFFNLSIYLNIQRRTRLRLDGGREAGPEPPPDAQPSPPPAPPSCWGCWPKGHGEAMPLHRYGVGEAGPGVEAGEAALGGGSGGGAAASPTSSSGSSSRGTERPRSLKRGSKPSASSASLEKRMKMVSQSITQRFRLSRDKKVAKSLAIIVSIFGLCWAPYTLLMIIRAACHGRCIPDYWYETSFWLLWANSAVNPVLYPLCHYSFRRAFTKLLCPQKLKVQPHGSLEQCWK
Chain of Sodium-dependent noradrenaline transporter (Homo sapiens) (P23975 whole entry): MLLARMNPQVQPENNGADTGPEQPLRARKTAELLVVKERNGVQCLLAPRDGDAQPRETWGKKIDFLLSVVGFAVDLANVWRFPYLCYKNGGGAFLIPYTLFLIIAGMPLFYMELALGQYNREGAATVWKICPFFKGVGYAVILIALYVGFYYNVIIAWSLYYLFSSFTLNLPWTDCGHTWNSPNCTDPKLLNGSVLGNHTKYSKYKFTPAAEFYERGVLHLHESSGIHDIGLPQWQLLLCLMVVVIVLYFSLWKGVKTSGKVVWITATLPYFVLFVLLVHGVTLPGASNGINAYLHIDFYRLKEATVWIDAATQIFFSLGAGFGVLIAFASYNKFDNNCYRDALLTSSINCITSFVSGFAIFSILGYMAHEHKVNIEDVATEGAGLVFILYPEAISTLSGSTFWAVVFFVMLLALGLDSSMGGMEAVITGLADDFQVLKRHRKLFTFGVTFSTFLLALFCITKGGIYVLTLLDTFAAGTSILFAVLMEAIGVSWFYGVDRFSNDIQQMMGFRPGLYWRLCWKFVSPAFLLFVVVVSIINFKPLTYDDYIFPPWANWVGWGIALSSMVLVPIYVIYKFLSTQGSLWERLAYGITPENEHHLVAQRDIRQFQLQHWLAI
Chain of hERG (KCNH2) (Q12809 whole entry): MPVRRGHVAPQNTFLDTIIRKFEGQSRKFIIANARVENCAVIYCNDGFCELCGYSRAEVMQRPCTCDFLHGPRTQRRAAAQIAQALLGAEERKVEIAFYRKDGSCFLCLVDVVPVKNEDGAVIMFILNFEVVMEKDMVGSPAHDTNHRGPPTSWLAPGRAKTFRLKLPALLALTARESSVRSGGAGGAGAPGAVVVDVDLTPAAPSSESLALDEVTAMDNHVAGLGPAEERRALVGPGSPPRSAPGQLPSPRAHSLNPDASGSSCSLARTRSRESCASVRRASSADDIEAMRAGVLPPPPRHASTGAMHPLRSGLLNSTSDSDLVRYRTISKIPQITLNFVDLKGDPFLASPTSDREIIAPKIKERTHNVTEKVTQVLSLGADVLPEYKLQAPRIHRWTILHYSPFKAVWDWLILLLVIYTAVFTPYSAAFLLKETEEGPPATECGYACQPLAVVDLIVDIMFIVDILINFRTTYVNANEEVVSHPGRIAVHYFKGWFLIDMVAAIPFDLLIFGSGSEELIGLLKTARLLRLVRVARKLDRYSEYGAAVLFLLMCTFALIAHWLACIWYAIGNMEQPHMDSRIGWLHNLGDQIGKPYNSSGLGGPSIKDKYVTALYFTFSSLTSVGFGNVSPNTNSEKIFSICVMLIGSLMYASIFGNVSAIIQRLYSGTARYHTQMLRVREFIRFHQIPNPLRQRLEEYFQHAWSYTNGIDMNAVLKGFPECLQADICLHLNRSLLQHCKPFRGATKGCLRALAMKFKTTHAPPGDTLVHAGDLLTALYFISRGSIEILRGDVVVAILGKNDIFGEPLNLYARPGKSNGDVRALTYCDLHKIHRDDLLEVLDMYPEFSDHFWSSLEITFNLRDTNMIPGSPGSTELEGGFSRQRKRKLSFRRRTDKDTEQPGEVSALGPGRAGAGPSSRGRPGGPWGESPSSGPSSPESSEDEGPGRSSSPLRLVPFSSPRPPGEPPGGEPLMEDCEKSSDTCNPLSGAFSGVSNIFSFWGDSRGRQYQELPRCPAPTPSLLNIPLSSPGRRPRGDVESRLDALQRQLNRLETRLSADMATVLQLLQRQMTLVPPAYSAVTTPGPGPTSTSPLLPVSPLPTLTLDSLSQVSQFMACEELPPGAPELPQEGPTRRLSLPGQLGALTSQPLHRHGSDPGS
Chain of Histamine H2 receptor (Homo sapiens) (P25021 whole entry): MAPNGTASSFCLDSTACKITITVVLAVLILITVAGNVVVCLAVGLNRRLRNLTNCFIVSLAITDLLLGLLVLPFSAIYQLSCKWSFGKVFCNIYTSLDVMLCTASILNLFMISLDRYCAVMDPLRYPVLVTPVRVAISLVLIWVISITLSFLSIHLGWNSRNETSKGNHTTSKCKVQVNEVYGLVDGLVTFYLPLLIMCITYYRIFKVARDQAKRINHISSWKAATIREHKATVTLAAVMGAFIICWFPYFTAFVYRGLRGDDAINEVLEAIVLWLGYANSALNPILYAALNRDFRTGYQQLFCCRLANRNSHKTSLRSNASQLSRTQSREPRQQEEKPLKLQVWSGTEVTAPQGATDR

SMILES | pKi [1] | pKi [2] | pIC50 [3] | pIC50 [4] | pIC50 [5] | pIC50 [6] | pIC50 [7] | also measured
COC[C@H]1CCCN1CCCOc1ccc(-c2nn(C(C)C)c(=O)c3ccsc23)cc1 | < 5.52 | 5.95 | – | – | – | – | – | –
CN1N=C(c2ccc(OCCCN3CCCCC3)cc2)C2CCCC2C1=O (configuration not stated) | 8.03 | 8.64 | < 4.52 | < 4.52 | < 4.52 | < 4.52 | < 4.52 | –
CC(C)n1nc(-c2ccc(OCCCN3CCC[C@H]3C)cc2)c2sccc2c1=O | 8.08 | 8.59 | < 4.52 | < 4.52 | < 4.52 | < 4.52 | < 4.52 | Vd [8]: 2.98 L/kg; AUC [9]: 160 ng·h/mL; half-life [10]: 18 min; Cmax [11]: < 5 ng/mL; Kp at 1 h [12]: 4.07; bioavailability [13]: < 1%; clearance [14]: 117 mL/min/kg
COC[C@@H]1CCCN1CCCOc1ccc(-c2nn(C(C)C)c(=O)c3ccsc23)cc1 | 5.93 | 7.30 | – | – | – | – | – | –
CCCn1nc(-c2ccc(OCCCN3CCC(C)CC3)cc2)c2sccc2c1=O | 7.24 | 7.64 | – | – | – | – | – | –
C[C@@H]1CCCN1CCCOc1ccc(-c2nn(Cc3ccc(Cl)cc3)c(=O)c3ccccc23)cc1 | 7.92 | 8.34 | – | – | – | – | – | –
O=c1c2ccsc2c(-c2ccc(OCCCN3CCCCC3)cc2)nn1Cc1ccc(Cl)cc1 | 6.84 | 7.32 | – | – | – | – | – | –
CCN(CC)CCCOc1ccc(-c2nn(C(C)C)c(=O)c3ccsc23)cc1 | 6.78 | 7.64 | – | – | – | – | – | –
Cn1nc(-c2ccc(OCCCN3CCCCC3)cc2)c2ccccc2c1=O | 8.05 | 9.10 | < 4.52 | < 4.52 | < 4.52 | < 4.52 | < 4.52 | half-life [17]: > 40 min; Vd [8]: 1.36 L/kg; half-life [18]: > 40 min; AUC [9]: 402 ng·h/mL; AUC [19]: 14 ng·h/mL; half-life [10]: 18 min; Cmax [11]: 20 ng/mL; Kp at 1 h [12]: 2.98; bioavailability [13]: < 1%; clearance [14]: 52 mL/min/kg; half-life [20]: > 40 min
C[C@@H]1CCCN1CCCOc1ccc(-c2nn(Cc3ccc(Cl)cc3)c(=O)c3ccsc23)cc1 | 7.92 | 8.62 | – | – | – | – | – | –
Cn1nc(-c2ccc(OCCN3CCCCC3)cc2)c2ccccc2c1=O | < 6.00 | 7.08 | – | – | – | – | – | –
CC(C)n1nc(-c2ccc(OCCCN3CCCCC3)cc2)c2sccc2c1=O | 7.72 | 8.72 | – | – | – | – | – | –
O=c1c2ccccc2c(-c2ccc(OCCCN3CCCCC3)cc2)nn1Cc1ccc(Cl)cc1 | 7.64 | 7.96 | – | – | – | – | – | –
CCCn1nc(-c2ccc(OCCCN3CCC[C@H]3C)cc2)c2sccc2c1=O | 7.92 | 8.82 | – | – | – | – | – | –

Stronger by pKi [1], values ahead:

pKi [1] | pKi [2] | pIC50 [3] | pIC50 [4] | pIC50 [5] | pIC50 [6] | pIC50 [7] | SMILES | also measured
8.35 | 8.82 | < 4.52 | < 4.52 | < 4.52 | < 4.52 | < 4.52 | Cn1nc(-c2ccc(OCCCN3CCCCC3)cc2)c2c(c1=O)CCCC2 | –
8.33 | 8.80 | < 4.52 | < 4.52 | < 4.52 | < 4.52 | < 4.52 | C[C@@H]1CCCN1CCCOc1ccc(C2=NN(C)C(=O)C3CCCC23)cc1 (some centres not stated) | –
8.37 | 9.30 | < 4.52 | < 4.52 | < 4.52 | < 4.52 | < 4.52 | Cn1nc(-c2ccc(OCCCN3CCCCC3)cc2)c2c(c1=O)CCC2 | Kb [15]: 0.0002 µM; pEC50 [16]: 9.10
8.15 | 8.40 | – | – | – | – | – | CC(C)n1nc(-c2ccc(OCCCN3CCCC3)cc2)c2sccc2c1=O | –
8.92 | 9.10 | < 4.52 | < 4.52 | < 4.52 | < 4.52 | < 4.52 | C[C@@H]1CCCN1CCCOc1ccc(-c2nn(C)c(=O)c3c2CCCC3)cc1 | –
8.42 | 9.10 | – | – | – | – | – | C[C@@H]1CCCN1CCCOc1ccc(-c2nn(C)c(=O)c3ccccc23)cc1 | –
8.74 | 8.85 | – | – | – | – | – | Cn1nc(-c2ccc(OCCCN3CCCCCC3)cc2)c2ccccc2c1=O | –
8.70 | 9.40 | < 4.52 | < 4.52 | < 4.52 | < 4.52 | < 4.52 | C[C@@H]1CCCN1CCCOc1ccc(-c2nn(C)c(=O)c3c2CCC3)cc1 | inhibition [21]: < 30%; Kb [15]: 0.0002 µM; Vd [8]: 3.35 L/kg; AUC [9]: 182 ng·h/mL; AUC [19]: 5.82 ng·h/mL; half-life [10]: 15.6 min; Cmax [11]: 7 ng/mL; inhibition [22]: < 30%; Kp at 1 h [12]: 1.2; bioavailability [13]: < 1%; inhibition at 10 µM [23]: 23%; inhibition [24]: < 30%; inhibition [25]: 60%; clearance [14]: 163 mL/min/kg; pEC50 [16]: 9.10; inhibition [26]: 68%
8.44 | 8.77 | – | – | – | – | – | Cn1nc(-c2ccc(OCCCN3CCCC3)cc2)c2ccccc2c1=O | –
